The results in this text go back to patent US7858610B2, “Preventive and/or remedy for lower urinary tract diseases containing EP4 agonist” (Ono Pharmaceutical Co., Ltd., priority 2004, dated 2010).

This experiment relates to model of cyclophosphamide-induced cystitis in rats. The experiment is described as follows: Cystometry in the model of cyclophosphamide-induced cystitis in rats. The experiment is classed as in vivo, rat. Conditions: for decrease of the bladder compliance induced by cyclophosphamide: bladder capacity divided by voiding pressure. As for the experimental part: Female Wistar rats (around 9 weeks old) were anesthetized with sodium pentobarbital (40 mg/kg, i.p.). After median incision of the hypogastrium, the top of bladder was incised. A catheter for use in cystometry was filled with physiological saline and then was inserted through the top hole into bladder. The other end of the catheter was fixed subcutaneously in the dorsal part. 0.1 mL Vicillin S500 (Meiji Seika Kaisha, Ltd.; 100 mg titers/mL distilled water/rat) was injected into the buttock muscle. Then, the rats were fed for 6 days or more, and subsequently subjected to the following treatment.
The model of cyclophosphamide-induced cystitis was prepared by a single dose intraperitoneal administration of cyclophosphamide (Sigma; 150 mg/kg). Distilled water is administered intraperitoneally for the control group.
The test compound of each dose was administrated orally 30 minutes before the treatment of cyclophosphamide, and 4, 20, 30 and 45 hours after the treatment of cyclophosphamide. The solvent group (hereinafter, it may be referred to as vehicle.) was administrated distilled water which is the solvent of the test compound. The following cystometry was carried out 48 hours after the treatment of cyclophosphamide.
The rats anesthetized with diethyl ether were kept in ballman cage. The tip of the indwelling catheter for use in measurement of voiding pressure was connected through a three-way valve. Another end of the three-way valve was connected to a pressure transducer, while the other end was connected to a syringe for intravesical injection which was mounted on an infusion pump. A signal of voiding pressure was recorded using an amp recorder of strain pressure
After awaking from anesthesia, saline was injected into the bladder of the rats at a rate of 2.85 mL/h. After the pattern of the micturition reflex was stable, the residual urine was removed. Afterwards, saline was injected again into the bladder at a rate of 2.85 mL/h, and the voiding pressure and the urination interval were measured. The bladder capacity was calculated from the urination interval. The bladder compliance was calculated by dividing the bladder capacity by the voiding pressure.

Where [1] appears, read: 1000 μg/kg orally, cyclophosphamide-induced cystitis, female Wistar rats.

As to “methyl 4-{[2-((1R,2R,3R)-3-hydroxy-2-{(1E,3S)-3-hydroxy-4-[3-(methoxymethyl)phenyl]but-1-enyl}-5-oxocyclopenty)ethyl]sulfanyl}butanoate α-cyclodextrin clathrate [compound 2]”, under setting [1], the “decrease of the bladder capacity induced by cyclophosphamide” value is given as “improved” and the “decrease of the bladder compliance induced by cyclophosphamide” value was “improved”.

Regarding `O=C(O)CCCSCCN1C(=O)CC[C@@H]1/C=C/[C@@H](O)Cc1ccc(F)cc1` [compound 1, 4-[(2-{(2R)-2-[(1E,3S)-4-(4-fluorophenyl)-3-hydroxybut-1-enyl]-5-oxopyrrolidin-1-yl}ethyl)sulfanyl]butanoic acid], the “decrease of the bladder compliance induced by cyclophosphamide” value (300 μg/kg orally, 30 min before and 4, 20, 30 and 45 h after cyclophosphamide (150 mg/kg i.p.), cystometry 48 h after, FIG. 2) is “improved”. Where the note is “300 μg/kg orally, 30 min before and 4, 20, 30 and 45 h after cyclophosphamide (150 mg/kg i.p.), cystometry 48 h after, female Wistar rats, FIG. 1”, the “decrease of the bladder capacity induced by cyclophosphamide” value is given as “improved”. Also, the voiding pressure entry (oral administration, regardless of the presence of the cyclophosphamide treatment, FIG. 3) is reported as “decreased”.
